Measured values taken from patent US8822500B2, “Tyrosine kinase inhibitors” (Chembridge Corporation, priority 2008, dated 2014).
Where “and” joins values, the source holds several entries; their conditions need not be identical. Equal entries are not always repeated.

Key:
[1] = tested on: EML4-ALK C1156Y BaF3 cells; experiment: BaF3 stables cell viability (WST-1); details: Mus musculus, BaF3, read-out: BaF3 Stables IC50 nM C1156Y
[2] = tested on: NPM-ALK BaF3 cells; experiment: BaF3 stables cell viability (WST-1); details: Mus musculus, BaF3, read-out: BaF3 Stables IC50 nM NPMALK
[3] = target: ALK R1275Q (Homo sapiens (Human), UniProt Q9UM73, R1275Q); experiment: Cell free kinase assay (Carna Biosciences kinases); type: biochemical
Chain of ALK R1275Q (Q9UM73 1060-1620 R1275Q): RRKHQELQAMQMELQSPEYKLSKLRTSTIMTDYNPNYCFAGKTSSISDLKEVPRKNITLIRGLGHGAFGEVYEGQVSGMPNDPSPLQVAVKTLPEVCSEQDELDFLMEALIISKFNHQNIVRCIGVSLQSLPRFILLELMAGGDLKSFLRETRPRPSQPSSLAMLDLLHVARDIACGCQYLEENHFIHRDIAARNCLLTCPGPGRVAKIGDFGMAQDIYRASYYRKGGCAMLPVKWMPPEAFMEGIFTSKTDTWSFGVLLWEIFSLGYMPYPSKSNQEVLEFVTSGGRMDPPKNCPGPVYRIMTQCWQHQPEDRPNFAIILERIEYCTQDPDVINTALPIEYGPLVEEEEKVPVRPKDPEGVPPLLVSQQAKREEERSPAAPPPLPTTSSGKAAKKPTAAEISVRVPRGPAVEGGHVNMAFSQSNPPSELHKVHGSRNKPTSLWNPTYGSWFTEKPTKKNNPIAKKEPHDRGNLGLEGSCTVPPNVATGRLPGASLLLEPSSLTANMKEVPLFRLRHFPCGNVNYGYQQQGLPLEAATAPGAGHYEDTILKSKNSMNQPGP

[4] = target: ALK (WT) (Homo sapiens (Human), UniProt Q9UM73); experiment: Cell free kinase assay (Carna Biosciences kinases); type: biochemical
Chain of ALK (WT) (Q9UM73 1060-1620): as the sequence (Q9UM73 1060-1620 R1275Q) above, with Q216R counted along it

[5] = tested on: NPM-ALK R1275Q BaF3 cells; experiment: BaF3 stables cell viability (WST-1); details: Mus musculus, BaF3, read-out: BaF3 Stables IC50 nM R1275Q
[6] = tested on: FLT3-ITD BaF3 cells; experiment: BaF3 stables cell viability (WST-1); details: Mus musculus, BaF3, read-out: BaF3 Stables IC50 nM FLT3-ITD
[7] = tested on: NPM-ALK C1156Y BaF3 cells; experiment: BaF3 stables cell viability (WST-1); details: Mus musculus, BaF3, read-out: BaF3 Stables IC50 nM C1156Y
[8] = tested on: EML4-ALK BaF3 cells; experiment: BaF3 stables cell viability (WST-1); details: Mus musculus, BaF3, read-out: BaF3 Stables IC50 nM EML4-ALK
[9] = target: ALK (Homo sapiens (Human), UniProt Q9UM73); experiment: In vitro kinase activity assay (LANCE TR-FRET); type: biochemical; details: read-out: GTx-ALK IC50;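 note: kinase reactions with ATP and a poly-GT peptide substrate, phosphorylated product read by time-resolved FRET, 11-point curve from 10^−11 to 10^−5 M, DMSO as negative control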
Chain of ALK (Q9UM73 19-1620): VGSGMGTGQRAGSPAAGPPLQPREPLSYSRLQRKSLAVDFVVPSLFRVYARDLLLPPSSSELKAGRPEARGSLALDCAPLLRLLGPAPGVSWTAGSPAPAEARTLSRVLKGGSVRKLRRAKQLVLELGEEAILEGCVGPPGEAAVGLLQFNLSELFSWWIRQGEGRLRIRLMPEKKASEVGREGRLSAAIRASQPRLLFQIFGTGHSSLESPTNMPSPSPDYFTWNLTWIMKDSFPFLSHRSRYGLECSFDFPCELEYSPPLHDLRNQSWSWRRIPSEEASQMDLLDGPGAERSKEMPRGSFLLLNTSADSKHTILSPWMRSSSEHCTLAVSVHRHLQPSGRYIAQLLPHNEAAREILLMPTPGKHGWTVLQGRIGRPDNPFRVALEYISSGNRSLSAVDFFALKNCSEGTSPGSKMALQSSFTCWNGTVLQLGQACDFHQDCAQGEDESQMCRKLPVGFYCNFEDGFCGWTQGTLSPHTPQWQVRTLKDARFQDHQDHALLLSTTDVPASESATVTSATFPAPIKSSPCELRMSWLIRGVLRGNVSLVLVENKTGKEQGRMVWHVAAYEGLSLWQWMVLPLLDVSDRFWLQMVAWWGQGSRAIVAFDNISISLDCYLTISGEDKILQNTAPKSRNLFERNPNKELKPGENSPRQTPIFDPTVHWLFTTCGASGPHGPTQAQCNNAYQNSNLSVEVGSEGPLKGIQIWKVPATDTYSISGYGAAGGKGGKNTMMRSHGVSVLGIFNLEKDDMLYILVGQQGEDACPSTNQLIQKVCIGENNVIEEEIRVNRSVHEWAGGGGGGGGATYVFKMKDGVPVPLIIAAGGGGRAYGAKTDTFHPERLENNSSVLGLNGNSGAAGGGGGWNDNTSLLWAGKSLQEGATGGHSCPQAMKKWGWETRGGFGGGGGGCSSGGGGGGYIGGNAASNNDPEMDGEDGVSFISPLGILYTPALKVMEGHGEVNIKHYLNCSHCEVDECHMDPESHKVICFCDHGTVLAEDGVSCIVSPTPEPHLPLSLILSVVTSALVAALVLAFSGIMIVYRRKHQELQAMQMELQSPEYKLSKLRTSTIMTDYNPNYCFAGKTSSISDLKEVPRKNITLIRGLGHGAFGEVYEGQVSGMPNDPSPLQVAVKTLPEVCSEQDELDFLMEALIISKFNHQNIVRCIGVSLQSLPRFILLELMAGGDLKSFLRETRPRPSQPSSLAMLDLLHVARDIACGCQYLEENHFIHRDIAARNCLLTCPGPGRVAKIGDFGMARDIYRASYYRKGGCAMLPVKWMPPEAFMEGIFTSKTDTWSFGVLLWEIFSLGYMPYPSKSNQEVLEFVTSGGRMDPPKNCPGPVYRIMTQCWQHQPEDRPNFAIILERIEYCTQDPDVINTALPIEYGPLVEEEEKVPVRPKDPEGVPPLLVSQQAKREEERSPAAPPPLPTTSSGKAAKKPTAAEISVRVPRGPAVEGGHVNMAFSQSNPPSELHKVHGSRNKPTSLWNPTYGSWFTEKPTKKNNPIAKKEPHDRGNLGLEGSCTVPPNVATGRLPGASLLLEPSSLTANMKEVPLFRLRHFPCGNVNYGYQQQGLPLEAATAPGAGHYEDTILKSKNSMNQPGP

[10] = tested on: EML4-ALK R1275Q BaF3 cells; experiment: BaF3 stables cell viability (WST-1); details: Mus musculus, BaF3, read-out: BaF3 Stables IC50 nM R1275Q, EML4-ALK construct

Question: What does the source list for `Cc1ccc(F)cc1C[C@H](C)Nc1cc[nH]c(=O)c1-c1nc2cc3c(cc2[nH]1)CN(CCN(C)C)C3=O` (stereo in doubt) [Compound 45, 2-(4-(1-(5-Fluoro-2-methylphenyl)propan-2-ylamino)-2-oxo-1,2-dihydropyridin-3-yl)-6-(2-(dimethylamino)ethyl)-6,7-dihydroimidazo[4,5-f]isoindole-5(1H)-one]?
Answer: IC50 [1]: 90 ± 3.2 nM; IC50 [2]: 46 ± 2 nM; IC50 ([3]; read-out: Cell Free IC50 (nM) R1275O): 16.8 nM; cell free R1275Q resistance ([3]; vs ALK (WT)): 4 fold; IC50 [4]: 3.3 nM; IC50 [5]: 81 ± 4.2 nM; IC50 [6]: > 1 nM; IC50 [7]: 72 ± 1.2 nM; IC50 [8]: 66 ± 2.7 nM; IC50 [9]: 7 nM and 14 nM; IC50 [10]: ~90 nM
